{"source": "patent US5310667A", "about": "(priority 1989, dated 1994)", "test_system": "variant soybean EPSPS (gly 104 to ala, gly 147 to asp) from pMON9953", "test": "Glyphosate tolerance of EPSP synthase extracted from bacteria", "assay_type": "biochemical, Glycine max", "details": "enzyme extracted from E. coli SR481 with pMON9953", "excerpt": "An E. coli expression vector for wild type soybean EPSPS was constructed by engineering an NcoI site at the predicted start of the mature soybean coding sequence by the method of Kunkel (1985). This sequence was then inserted into pMON9563, replacing the coding sequence for mature petunia EPSPS resulting in pMON9904."}
{"smiles": "O=C(O)CNCP(=O)(O)O", "note": "[glyphosate, N-phosphonomethylglycine]", "values": [{"measurement": "glyphosate tolerance of extracted EPSP synthase", "result": "glyphosate tolerant"}]}
